Data reported in BindingDB's records for PubMed 11303071 (Banyu Pharmaceutical, 2001).

Experiments:
[1] = biological target: T1, Muscarinic acetylcholine receptor M4 (Homo sapiens, UniProt P08173)
T1 sequence (P08173 whole entry): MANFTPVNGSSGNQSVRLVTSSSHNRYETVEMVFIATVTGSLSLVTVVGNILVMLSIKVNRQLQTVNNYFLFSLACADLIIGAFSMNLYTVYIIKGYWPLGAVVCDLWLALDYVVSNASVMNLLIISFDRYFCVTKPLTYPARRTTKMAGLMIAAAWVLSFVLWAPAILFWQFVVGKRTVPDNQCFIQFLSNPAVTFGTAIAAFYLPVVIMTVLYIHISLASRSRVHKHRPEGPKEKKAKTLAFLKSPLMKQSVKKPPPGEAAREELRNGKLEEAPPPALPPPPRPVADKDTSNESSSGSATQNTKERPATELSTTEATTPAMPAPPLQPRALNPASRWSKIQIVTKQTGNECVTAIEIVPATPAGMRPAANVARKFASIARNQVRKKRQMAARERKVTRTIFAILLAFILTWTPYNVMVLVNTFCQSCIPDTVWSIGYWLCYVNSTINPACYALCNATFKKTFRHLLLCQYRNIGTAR

[2] = biological target: T2, Muscarinic acetylcholine receptor M5 (Homo sapiens, UniProt P08912)
T2 sequence (P08912 whole entry): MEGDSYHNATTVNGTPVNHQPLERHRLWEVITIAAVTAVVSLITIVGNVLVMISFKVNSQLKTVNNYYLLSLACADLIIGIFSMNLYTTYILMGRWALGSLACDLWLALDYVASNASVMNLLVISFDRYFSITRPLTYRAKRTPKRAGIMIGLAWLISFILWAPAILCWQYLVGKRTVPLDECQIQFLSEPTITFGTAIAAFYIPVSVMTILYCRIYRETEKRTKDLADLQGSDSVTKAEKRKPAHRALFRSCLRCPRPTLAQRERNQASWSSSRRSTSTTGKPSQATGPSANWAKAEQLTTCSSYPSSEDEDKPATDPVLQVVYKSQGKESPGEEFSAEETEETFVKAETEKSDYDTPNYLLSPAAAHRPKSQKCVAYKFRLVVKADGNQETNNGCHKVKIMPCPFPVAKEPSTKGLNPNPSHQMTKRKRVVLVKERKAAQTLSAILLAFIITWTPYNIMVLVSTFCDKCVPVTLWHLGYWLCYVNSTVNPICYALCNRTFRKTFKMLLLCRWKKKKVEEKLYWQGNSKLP

[3] = biological target: T3, Muscarinic acetylcholine receptor M2 (Homo sapiens, UniProt P08172)
T3 sequence (P08172 whole entry): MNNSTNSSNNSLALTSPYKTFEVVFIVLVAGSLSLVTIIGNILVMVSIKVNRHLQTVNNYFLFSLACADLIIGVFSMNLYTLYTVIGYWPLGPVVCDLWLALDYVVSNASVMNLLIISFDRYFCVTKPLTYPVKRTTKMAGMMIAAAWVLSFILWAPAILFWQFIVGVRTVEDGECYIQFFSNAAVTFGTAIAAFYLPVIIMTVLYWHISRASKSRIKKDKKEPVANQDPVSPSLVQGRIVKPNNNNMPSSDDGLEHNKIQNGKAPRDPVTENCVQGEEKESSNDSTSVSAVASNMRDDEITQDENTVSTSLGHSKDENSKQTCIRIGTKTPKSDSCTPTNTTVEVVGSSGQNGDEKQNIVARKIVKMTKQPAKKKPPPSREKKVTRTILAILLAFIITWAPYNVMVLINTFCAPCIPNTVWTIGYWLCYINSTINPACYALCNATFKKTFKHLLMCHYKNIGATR

[4] = biological target: Muscarinic acetylcholine receptor M3 (Rattus norvegicus, UniProt P08483)
Muscarinic acetylcholine receptor M3, sequence (P08483 whole entry): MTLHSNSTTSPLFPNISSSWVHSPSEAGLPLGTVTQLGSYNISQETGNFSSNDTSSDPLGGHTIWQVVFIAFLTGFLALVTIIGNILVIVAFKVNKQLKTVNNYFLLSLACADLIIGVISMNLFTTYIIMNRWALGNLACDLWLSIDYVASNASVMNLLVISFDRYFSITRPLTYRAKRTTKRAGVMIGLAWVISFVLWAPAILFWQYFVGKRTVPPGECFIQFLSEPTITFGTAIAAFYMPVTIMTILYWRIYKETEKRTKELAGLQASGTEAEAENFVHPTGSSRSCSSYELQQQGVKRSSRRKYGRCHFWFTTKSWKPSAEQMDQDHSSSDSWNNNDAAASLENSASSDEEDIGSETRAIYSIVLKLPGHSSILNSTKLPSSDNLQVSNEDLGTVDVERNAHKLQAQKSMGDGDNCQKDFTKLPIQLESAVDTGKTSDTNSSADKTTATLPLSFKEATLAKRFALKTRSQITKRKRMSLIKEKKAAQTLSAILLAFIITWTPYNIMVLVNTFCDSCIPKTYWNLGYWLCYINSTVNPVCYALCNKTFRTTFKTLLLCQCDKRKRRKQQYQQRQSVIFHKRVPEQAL

Compound: NC1=COC=C(CN2CCC(NC(=O)[C@](O)(c3ccccc3)[C@@H]3CCC(F)(F)C3)CC2)N1 [Compound A]
- Ki [1]: 15 nM
- Ki [2]: 7.7 nM
- Ki [3]: 540 nM
- Ki [4]: 2.6 nM

Compound: NC(=O)C(c1ccccc1)(c1ccccc1)[C@@H]1CCN(CCc2ccc3c(c2)CCO3)C1 [Enablex]
- Ki [1]: 8.6 nM
- Ki [2]: 2.3 nM
